Reference: patent publication US6989384B2, “Antipicornaviral compounds and compositions, their pharmaceutical uses, and materials for their synthesis” (Agouron Pharmaceuticals, Inc., priority 2000, dated 2006)

These molecules were tested against T1, rhinovirus 3C protease from HRV serotype-14 (Human rhinovirus 14, UniProt P03303) (assay: Inhibition of rhinovirus 3C protease activity (FRET assay), HRV-14). Settings: HRV-14 3C protease; progress curves, enzyme start.
T1 construct: Recombinant rhinovirus 3C proteases; made in house
Type: biochemical
Experimental: Stock solutions (50 mM, in DMSO) of various compounds were prepared; dilutions were in the same solvent. Recombinant rhinovirus 3C proteases (see Birch et al., “Purification of recombinant human rhinovirus 14 3C protease expressed in Escherichia coli,” Protein Expr. Pur. 1995, 6(5), 609–618) from serotypes 14, 16, and 2 were prepared by the following standard chromatographic procedures: (1) ion exchange using Q Sepharose Fast Flow from Pharmacia; (2) affinity chromatography using Affi-Gel Blue from Biorad; and (3) sizing using Sephadex G-100 from Pharmacia. Each assay sample contained 2% DMSO, 50 mM tris pH 7.6, 1 mM EDTA, a test compound at the indicated concentration, approximately 1 μM substrate, and 50–100 nM protease. The kobs/I values were obtained from reactions initiated by addition of enzyme rather than substrate. RVP activity was measured in the fluorescence resonance energy transfer assay. The substrate was (N-terminal) DABCYL-(Gly-Arg-Ala-Val-Phe-Gln-Gly-Pro-Val-Gly)-EDANS. In the uncleaved peptide, the EDANS fluorescence was quenched by the proximal DABCYL group. When the peptide was cleaved, the quenching was relieved, and activity was measured as an increase in fluorescence signal. In the Table, unless otherwise indicated, all data are for rhinovirus 3C protease from HRV serotype-14 (produced from the infectious cDNA clone constructed by Dr. Robert Rueckert, Institute for Molecular Virology, University of Wisconsin, Madison, Wis.). The data in the column designated kobs/[I] were measured from progress curves in enzyme start experiments.

T1 sequence (P03303 1538-1719): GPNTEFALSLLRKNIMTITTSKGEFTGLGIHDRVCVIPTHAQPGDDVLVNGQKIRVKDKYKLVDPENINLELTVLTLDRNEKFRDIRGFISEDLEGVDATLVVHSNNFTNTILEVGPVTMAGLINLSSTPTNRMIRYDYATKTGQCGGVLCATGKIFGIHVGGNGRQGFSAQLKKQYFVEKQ

| Protease Inhibition kobs/I [M⁻¹ s⁻¹] | SMILES |
| --- | --- |
| 673 | CCOC(=O)/C=C/[C@H](C[C@@H]1CCNC1=O)NC(=O)c1cc2ccccc2cc1NC(C)=O [Compound 22, 4S-[(3-acetylamino-naphthalene-2-carbonyl)-amino]-5-(2-oxo-pyrrolidin-3S-yl)-pent-2-enoic acid ethyl ester] |

Same assay, conditions: HRV-14 3C protease; progress curves, enzyme start; read-out: Protease Inhibition kobs/I

| SMILES | kinact/KI [M⁻¹ s⁻¹] |
| --- | --- |
| CCOC(=O)/C=C/[C@H](C[C@@H]1CCNC1=O)NC(=O)c1cc2cc(Br)ccc2o1 [Compound 14, 4S-[(5-bromo-benzofuran-2-carbonyl)-amino]-5-(2-oxo-pyrrolidin-3S-yl)-pent-2-enoic acid ethyl ester] | 219 |
| CCOC(=O)/C=C/[C@H](C[C@@H]1CCNC1=O)NC(=O)/C=C/c1cc(Br)ccc1Br [Compound 64, 4S-[3-(2,5-dibromo-phenyl)-acryloylamino]-5-(2-oxo-pyrrolidin-3S-yl)-pent-2-enoic acid ethyl ester] | 6850 |
| CCOC(=O)/C=C/[C@H](C[C@@H]1CCNC1=O)NC(=O)COc1cccc(Cl)c1 [Compound 61, 4S-[2-(3-chloro-phenoxy)-acetylamino]-5-(2-oxo-pyrrolidin-35-yl)-pent-2-enoic acid ethyl ester] | 103 |
| CCOC(=O)/C=C/[C@H](C[C@@H]1CCNC1=O)NC(=O)Nc1cc(C)cc(C)c1 [Compound 58, 4S-[3-(3,5-dimethyl-phenyl)-ureido]-5-(2-oxo-pyrrolidin-3S-yl)-pent-2-enoic acid ethyl ester] | 185 |
| CCOC(=O)/C=C/[C@H](C[C@@H]1CCNC1=O)NC(=O)c1cc2ccccc2cc1N [Compound 69, 4S-[(3-amino-naphthalene-2-carbonyl)-amino]-5-(2-oxo-pyrrolidin-3S-yl)-pent-2-enoic acid ethyl ester] | 142 |

The next lines start with the values.

| kinact/KI [M⁻¹ s⁻¹] | SMILES |
| --- | --- |
| 750 | CCOC(=O)/C=C/[C@H](C[C@@H]1CCNC1=O)NC(=O)/C=C/c1ccc(Cl)cc1 [Compound 11, 4S-[3-(4-chloro-phenyl)-acryloylamino]-5-(2-oxo-pyrrolidin-3S-yl)-pent-2-enoic acid ethyl ester] |
| 570 | CCOC(=O)/C=C/[C@H](C[C@@H]1CCNC1=O)NC(=O)c1ccc2cc(O)ccc2c1 [Compound 65, 4S-[(6-hydroxy-naphthalene-2-carbonyl)-amino]-5-(2-oxo-pyrrolidin-3S-yl)-pent-2-enoic acid ethyl ester] |
| 262 | CCOC(=O)/C=C/[C@H](C[C@@H]1CCNC1=O)NC(=O)c1ccc2cc(OC)c(OC)cc2c1 [Compound 18, 4S-[(6,7-dimethoxy-naphthalene-2-carbonyl)-amino]-5-(2-oxo-pyrrolidin-3S-yl)-pent-2-enoic acid ethyl ester] |
| 258 | CCOC(=O)/C=C/[C@H](C[C@@H]1CCNC1=O)NC(=O)c1ccc(C(=O)OC)cc1 [Compound 4, N-[3-ethoxycarbonyl-1S-(2-oxo-pyrrolidin-3R-ylmethyl)-ally]-terephthalamic acid methyl ester] |
| 581 | CCOC(=O)/C=C/[C@H](C[C@@H]1CCNC1=O)NC(=O)c1cc2ccccc2cc1NC(C)=O [Compound 22, 4S-[(3-acetylamino-naphthalene-2-carbonyl)-amino]-5-(2-oxo-pyrrolidin-3S-yl)-pent-2-enoic acid ethyl ester] |
| 36 | CCOC(=O)/C=C/[C@H](C[C@@H]1CCNC1=O)NC(=O)c1nc2ccccc2nc1O [Compound 7, 4S-[(3-hydroxyquinoxaline-2-carbonyl)-amino]-5-(2-oxopyrrolidin-3S-yl)-pent-2-enoic acid ethyl ester] |
| 55 | CCOC(=O)/C=C/[C@H](C[C@@H]1CCNC1=O)NC(=O)c1nc2ccccc2[nH]1 [Compound 10, 4-[(1H-benzoimidazole-2-carbonyl)-amino]-5-(2-oxo-pyrrolidin-3S-yl)-pent-2-enoic acid ethyl ester] |
| 77 | CCOC(=O)/C=C/[C@H](C[C@@H]1CCNC1=O)NC(=O)COc1cccc(OC)c1 [Compound 60, 4S-[2-(3-methoxy-phenoxy)-acetylamino]-5-(2-oxo-pyrrolidin-3S-yl)-pent-2-enoic acid ethyl ester] |
